IC50 data for 28 compounds are collected here from patent US8501936B2 (priority 2009, dated 2013).

One test concerns the target human FAK (Homo sapiens (Human), UniProt Q05397). The note with it: read-out: FAK IC50.
The next test addresses human JAK2 (Homo sapiens (Human), UniProt O60674). Conditions: read-out: JAK2 IC50.

Sequence of human JAK2 (O60674 815-1132): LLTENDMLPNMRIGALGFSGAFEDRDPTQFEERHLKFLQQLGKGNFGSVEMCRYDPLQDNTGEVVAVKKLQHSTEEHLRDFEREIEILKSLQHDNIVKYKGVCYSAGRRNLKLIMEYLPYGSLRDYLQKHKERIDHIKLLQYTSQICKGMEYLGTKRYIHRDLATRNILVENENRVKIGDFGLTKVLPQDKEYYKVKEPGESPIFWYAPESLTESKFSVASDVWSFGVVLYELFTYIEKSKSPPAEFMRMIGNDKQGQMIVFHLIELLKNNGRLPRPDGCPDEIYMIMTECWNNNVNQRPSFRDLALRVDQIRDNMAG
Sequence of human FAK (Q05397 whole entry): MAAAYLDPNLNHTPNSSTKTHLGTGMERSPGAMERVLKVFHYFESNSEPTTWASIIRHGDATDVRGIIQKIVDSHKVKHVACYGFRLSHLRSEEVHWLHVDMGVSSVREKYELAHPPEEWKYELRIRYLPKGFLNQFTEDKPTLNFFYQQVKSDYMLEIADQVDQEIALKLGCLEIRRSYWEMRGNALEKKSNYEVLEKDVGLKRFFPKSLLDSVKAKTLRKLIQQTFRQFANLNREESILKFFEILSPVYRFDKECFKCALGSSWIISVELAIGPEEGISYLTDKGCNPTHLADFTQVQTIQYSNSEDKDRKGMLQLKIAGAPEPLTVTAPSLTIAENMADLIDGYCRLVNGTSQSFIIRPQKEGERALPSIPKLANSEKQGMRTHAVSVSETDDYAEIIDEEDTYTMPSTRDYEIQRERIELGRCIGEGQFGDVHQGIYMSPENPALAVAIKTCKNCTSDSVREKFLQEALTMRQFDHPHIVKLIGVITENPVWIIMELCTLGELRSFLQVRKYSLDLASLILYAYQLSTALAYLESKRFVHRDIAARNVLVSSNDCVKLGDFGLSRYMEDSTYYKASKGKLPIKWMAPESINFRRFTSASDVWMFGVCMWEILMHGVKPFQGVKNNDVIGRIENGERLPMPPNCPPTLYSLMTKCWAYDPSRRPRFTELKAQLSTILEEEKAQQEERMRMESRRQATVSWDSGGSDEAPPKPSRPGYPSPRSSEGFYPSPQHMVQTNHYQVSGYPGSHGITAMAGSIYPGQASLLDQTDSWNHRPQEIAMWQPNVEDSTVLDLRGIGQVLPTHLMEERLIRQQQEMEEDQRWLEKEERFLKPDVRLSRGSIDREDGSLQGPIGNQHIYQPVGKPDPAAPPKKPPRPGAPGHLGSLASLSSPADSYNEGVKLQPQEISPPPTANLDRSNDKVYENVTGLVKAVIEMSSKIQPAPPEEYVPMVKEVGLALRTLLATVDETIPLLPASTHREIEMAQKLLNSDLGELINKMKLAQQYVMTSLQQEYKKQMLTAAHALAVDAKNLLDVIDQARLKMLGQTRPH
Experimental for human FAK: The ability of compounds to inhibit the kinase activity of baculovirus-expressed human FAK and PYK2 was measured using the 96-well plate TRF assay system described above for JAK2. […] For the FAK kinase assay, the reaction mixture (total volume=100 μL/well) contained 20 mM HEPES (pH 7.2), 10 μM ATP, 5 mM MgCl2, 0.5 mM DTT, 0.1% BSA, and test compound (diluted in DMSO; 2.5% DMSO final in assay). For PYK2, the 100 μL assay solution consisted of 20 mM HEPES (pH 7.2), 3 μM ATP, 5 mM MnCl2, 0.1% BSA, and test compound (diluted in DMSO; 2.5% DMSO final in assay). Enzyme (10 ng/mL FAK or 25 ng/mL PYK2) was added and the reaction was allowed to proceed at room temperature for 30 min. Detection of the phosphorylated product was performed by adding 100 μL/well of Eu—N1 labeled PY100 antibody diluted 1:75000 in 0.25% BSA in TBS-T (PerkinElmer #AD0041). […] Inhibition data were analyzed using ActivityBase and IC50 curves generated using XLFit.

The IC50 is the concentration at which inhibition is half-maximal. Regarding `CN1CCN(c2ccc(Nc3nc4c(Nc5ccccc5S(C)(=O)=O)cccn4n3)cc2)CC1` [Example 72, N(8)-(2-Methanesulfonyl-phenyl)-N(2)-[4-(4-methyl-piperazin-1-yl)-phenyl]-[1,2,4]triazolo[1,5-a]pyridine-2,8-diamine], the 50% inhibitory concentration (IC50) was found to be 380 nM on human FAK and 8.3 nM at human JAK2.

Take `CS(=O)(=O)c1ccc(-c2cccc3nc(Nc4ccc(OCCN5CCCC5)cc4)nn23)cc1` [Example 73, [5-(4-Methanesulfonyl-phenyl)-[1,2,4]triazolo[1,5-a]pyridin-2-yl]-[4-(2-pyrrolidin-1-yl-ethoxy)-phenyl]-amine]: the IC50 at human FAK worked out at 227 nM; at human JAK2 it was 2.1 nM.

Take `CC(C)(C)OC(=O)N1CCN(c2ccc(Nc3nc4cccc(-c5ccc(S(C)(=O)=O)cc5)n4n3)cc2)CC1` [Example 75, 4-{4-[5-(4-Methanesulfonyl-phenyl)-[1,2,4]triazolo[1,5-a]pyridin-2-ylamino]-phenyl}-piperazine-1-carboxylic acid tert-butyl ester]: the results for the half-inhibitory concentration (IC50) at human FAK and at human JAK2 were 359 nM and 1.3 nM, respectively.

Turning to `CS(=O)(=O)c1cccc(-c2cccc3nc(Nc4ccc(N5CCOCC5)cc4)nn23)c1` [Example 78, [5-(3-Methanesulfonyl-phenyl)-[1,2,4]triazolo[1,5-a]pyridin-2-yl]-(4-morpholin-4-yl-phenyl)-amine], the IC50 turned out to be 1530 nM on human FAK and 3.2 nM on human JAK2.

Consider `CN1CCN(c2ccc(Nc3nc4cccc(-c5ccc(S(C)(=O)=O)cc5)n4n3)cc2)CC1` [Example 81, [5-(4-Methanesulfonyl-phenyl)-[1,2,4]triazolo[1,5-a]pyridin-2-yl]-[4-(4-methyl-piperazin-1-yl)-phenyl]-amine], for which the IC50 at human FAK was found to be 421 nM; on human JAK2 it was 6.9 nM.

On to `CN1CCN(c2ccc(Nc3nc4cccc(-c5cccc(S(C)(=O)=O)c5)n4n3)cc2)CC1` [Example 82, [5-(3-Methanesulfonyl-phenyl)-[1,2,4]triazolo[1,5-a]pyridin-2-yl]-[4-(4-methyl-piperazin-1-yl)-phenyl]-amine], for which the IC50 on human FAK was determined as 584 nM; on human JAK2, 9.2 nM.

With `CN1CCN(c2ccc(Nc3nc4cccc(-c5cccc(NS(C)(=O)=O)c5)n4n3)cc2)CC1` [Example 83, N-(3-{2-[4-(4-Methyl-piperazin-1-yl)-phenylamino]-[1,2,4]triazolo[1,5-a]pyridin-5-yl}-phenyl)-methanesulfonamide], the values for the half-inhibitory concentration (IC50) at human FAK and on human JAK2 were 553 nM and 19 nM, respectively.

On to `CN1CCN(c2ccc(Nc3nc4cccc(-c5ccc(NS(C)(=O)=O)cc5)n4n3)cc2)CC1` [Example 84, N-(4-{2-[4-(4-Methyl-piperazin-1-yl)-phenylamino]-[1,2,4]triazolo[1,5-a]pyridin-5-yl}-phenyl)-methanesulfonamide], for which the IC50 at human FAK came out at 2280 nM; at human JAK2, 2.8 nM.

In the case of `CN1CCN(Cc2ccc(Nc3nc4cccc(-c5ccc(S(C)(=O)=O)cc5)n4n3)cc2)CC1` [Example 86, [5-(4-Methanesulfonyl-phenyl)-[1,2,4]triazolo[1,5-a]pyridin-2-yl]-[4-(4-methyl-piperazin-1-ylmethyl)-phenyl]-amine], the half-inhibitory concentration (IC50) at human FAK stood at 264 nM; on human JAK2, 1.7 nM.

In the case of `CN1CCN(Cc2ccc(Nc3nc4cccc(-c5cccc(S(C)(=O)=O)c5)n4n3)cc2)CC1` [Example 88, [5-(3-Methanesulfonyl-phenyl)-[1,2,4]triazolo[1,5-a]pyridin-2-yl]-[4-(4-methyl-piperazin-1-ylmethyl)-phenyl]-amine], the values for the IC50 at human FAK and at human JAK2 were 1030 nM and 11.7 nM, respectively.

For the compound `CN1CCN(c2ccc(NC(=O)Nc3nc4cccc(-c5cccc(S(C)(=O)=O)c5)n4n3)cc2)CC1` [Example 89, 1-[5-(3-Methanesulfonyl-phenyl)-[1,2,4]triazolo[1,5-a]pyridin-2-yl]-3-[4-(4-methyl-piperazin-1-yl)-phenyl]-urea], the IC50 on human FAK stood at 8830 nM; on human JAK2, 230 nM.

Turning to `COc1ccc(Nc2nc3cccc(-c4ccc(S(C)(=O)=O)cc4)n3n2)cc1` [Example 91, [5-(4-Methanesulfonyl-phenyl)-[1,2,4]triazolo[1,5-a]pyridin-2-yl]-(4-methoxy-phenyl)-amine], the IC50 was found to be 2600 nM at human FAK and 1.9 nM at human JAK2.

`CN1CCN(c2cccc(Nc3nc4cccc(-c5ccc(S(C)(=O)=O)cc5)n4n3)c2)CC1` [Example 92, [5-(4-Methanesulfonyl-phenyl)-[1,2,4]triazolo[1,5-a]pyridin-2-yl]-[3-(4-methyl-piperazin-1-yl)-phenyl]-amine]: the IC50 at human FAK amounted to 1270 nM; on human JAK2 it was 2.8 nM.

Regarding `CS(=O)(=O)c1ccc(-c2cccc3nc(Nc4cccc(S(C)(=O)=O)c4)nn23)cc1` [Example 94, (3-Methanesulfonyl-phenyl)-[5-(4-methanesulfonyl-phenyl)-[1,2,4]triazolo[1,5-a]pyridin-2-yl]-amine], the IC50 on human FAK was 3000 nM; at human JAK2 it was 9.3 nM.

`COc1ccc(Nc2nc3cccc(-c4ccc(CN5CCS(=O)(=O)CC5)cc4)n3n2)cc1` [Example 95, 5-{4-[(1,1-dioxidothiomorpholin-4-yl)methyl]phenyl}-N-(4-methoxyphenyl)[1,2,4]triazolo[1,5-a]pyridin-2-amine]: the IC50 on human FAK was 2000 nM; at human JAK2, 1 nM.

As to `CN1CCN(c2ccc(Nc3nc4c(-c5ccc(S(C)(=O)=O)cc5)cc(C(F)(F)F)cn4n3)cn2)CC1` [Example 104, [8-(4-Methanesulfonyl-phenyl)-6-trifluoromethyl-[1,2,4]triazolo[1,5-a]pyridin-2-yl]-[6-(4-methyl-piperazin-1-yl)-pyridin-3-yl]-amine], the IC50 on human FAK worked out at 669 nM; at human JAK2 it was 928 nM.

Turning to `CN1CCN(c2cccc(N(c3cccc(N4CCN(C)CC4)c3)c3nc4c(-c5ccc(S(C)(=O)=O)cc5)cc(F)cn4n3)c2)CC1` [Example 105, [6-Fluoro-8-(4-methanesulfonyl-phenyl)-[1,2,4]triazolo[1,5-a]pyridin-2-yl]-bis-[3-(4-methyl-piperazin-1-yl)-phenyl]-amine], the half-inhibitory concentration (IC50) on human FAK is 1050 nM; on human JAK2, 324 nM.

In the case of `CN1CCN(c2ccc(Nc3nc4c(-c5ccc(S(C)(=O)=O)cc5)cc(F)cn4n3)cc2)CC1` [Example 106, [6-Fluoro-8-(4-methanesulfonyl-phenyl)-[1,2,4]triazolo[1,5-a]pyridin-2-yl]-[4-(4-methyl-piperazin-1-yl)-phenyl]-amine], the IC50 is 3000 nM at human FAK and 31.6 nM on human JAK2.

Regarding `CN1CCN(c2cccc(Nc3nc4cncc(-c5ccc(S(C)(=O)=O)cc5)n4n3)c2)CC1` [Example 107, [5-(4-Methanesulfonyl-phenyl)-[1,2,4]triazolo[1,5-a]pyrazin-2-yl]-[3-(4-methyl-piperazin-1-yl)-phenyl]-amine], the half-inhibitory concentration (IC50) came out at 855 nM at human FAK and 307 nM at human JAK2.

In the case of `CN1CCN(c2cccc(Nc3nc4c(Nc5cccc(S(C)(=O)=O)c5)cccn4n3)c2)CC1` [Example 110, N(8)-(3-Methanesulfonyl-phenyl)-N(2)-[3-(4-methyl-piperazin-1-yl)-phenyl]-[1,2,4]triazolo[1,5-a]pyridine-2,8-diamine], the half-maximal inhibitory concentration (IC50) is 3000 nM on human FAK and 1310 nM at human JAK2.

Take `CN1CCN(c2cccc(Nc3nc4c(Nc5cccnc5N(C)S(C)(=O)=O)cccn4n3)c2)CC1` [Example 111, N-Methyl-N-(3-{2-[3-(4-methyl-piperazin-1-yl)-phenylamino]-[1,2,4]triazolo[1,5-a]pyridin-8-ylamino}-pyridin-2-yl)-methanesulfonamide]: the IC50 was determined as 2000 nM on human FAK and 60.3 nM on human JAK2.

As to `CS(=O)(=O)c1ccc(Nc2nc3c(-c4ccc(S(C)(=O)=O)cc4)cccn3n2)cc1` [Example 112, (4-Methanesulfonyl-phenyl)-[8-(4-methanesulfonyl-phenyl)-[1,2,4]triazolo[1,5-a]pyridin-2-yl]-amine], the results for the IC50 at human FAK and on human JAK2 were 531 nM and 1.3 nM, respectively.

In the case of `CS(=O)(=O)c1ccc(-c2cccn3nc(Nc4cccc(S(C)(=O)=O)c4)nc23)cc1` [Example 113, (3-Methanesulfonyl-phenyl)-[8-(4-methanesulfonyl-phenyl)-[1,2,4]triazolo[1,5-a]pyridin-2-yl]-amine], the IC50 at human FAK was found to be 693 nM; on human JAK2 it was 5.57 nM.

For `CS(=O)(=O)c1ccc(-c2cccn3nc(Nc4ccc(CN5CCS(=O)(=O)CC5)cc4)nc23)cc1` [Example 114, N-{4-[(1,1-dioxidothiomorpholin-4-yl)methyl]phenyl}-8-[4-(methylsulfonyl)phenyl][1,2,4]triazolo[1,5-a]pyridin-2-amine], the IC50 turned out to be 1480 nM at human FAK and 0.75 nM at human JAK2.

For the compound `CS(=O)(=O)c1ccc(-c2cccc3nc(Nc4ccc(CN5CCS(=O)(=O)CC5)cc4)nn23)cc1` [Example 115, N-{4-[(1,1-dioxidothiomorpholin-4-yl)methyl]phenyl}-5-[4-(methylsulfonyl)phenyl][1,2,4]triazolo[1,5-a]pyridin-2-amine], the figures for the IC50 on human FAK and on human JAK2 were 1050 nM and 0.66 nM, respectively.

In the case of `CN1CCN(Cc2cccc(Nc3nc4c(-c5ccc(S(C)(=O)=O)cc5)cccn4n3)c2)CC1` [Example 116, [8-(4-Methanesulfonyl-phenyl)-[1,2,4]triazolo[1,5-a]pyridin-2-yl]-[3-(4-methyl-piperazin-1-ylmethyl)-phenyl]-amine], the IC50 worked out at 3000 nM on human FAK and 3.07 nM at human JAK2.

On to `CS(=O)(=O)c1ccc(-c2cccc3nc(Nc4cccc(CN5CCOCC5)c4)nn23)cc1` [Example 117, [5-(4-Methanesulfonyl-phenyl)-[1,2,4]triazolo[1,5-a]pyridin-2-yl]-(3-morpholin-4-ylmethyl-phenyl)-amine], for which the IC50 was found to be 1470 nM on human FAK and 0.95 nM on human JAK2.

Regarding `CN1CCN(Cc2cccc(Nc3nc4cccc(-c5ccc(S(C)(=O)=O)cc5)n4n3)c2)CC1` [Example 118, [5-(4-Methanesulfonyl-phenyl)-[1,2,4]triazolo[1,5-a]pyridin-2-yl]-[3-(4-methyl-piperazin-1-ylmethyl)-phenyl]-amine], the values for the IC50 at human FAK and on human JAK2 were 2860 nM and 1.43 nM, respectively.
